{"source": "patent US10316017B2", "about": "“COT modulators and methods of use thereof” (Gilead Sciences, Inc., priority 2015, dated 2019)", "data": [{"biological_target": "T1, human Cot catalytic domain (30-397 amino acids) (Homo sapiens, UniProt P41279)", "T1 construct": "Purified recombinant human Cot catalytic domain (30-397 amino acids) was purchased from Cama Biosciences; purchased Cama Biosciences (so in the source)", "T1 sequence (P41279 30-397)": "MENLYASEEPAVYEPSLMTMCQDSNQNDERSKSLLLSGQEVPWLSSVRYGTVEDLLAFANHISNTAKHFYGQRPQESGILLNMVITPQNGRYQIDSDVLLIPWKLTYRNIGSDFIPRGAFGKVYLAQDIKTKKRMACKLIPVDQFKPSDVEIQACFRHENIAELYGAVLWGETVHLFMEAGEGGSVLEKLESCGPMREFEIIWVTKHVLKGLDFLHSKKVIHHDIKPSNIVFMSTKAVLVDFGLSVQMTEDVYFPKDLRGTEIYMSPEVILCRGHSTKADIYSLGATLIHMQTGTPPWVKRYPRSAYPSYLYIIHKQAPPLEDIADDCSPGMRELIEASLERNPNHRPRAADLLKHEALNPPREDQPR", "assay": "High Throughput Cot Biochemical Assay (KinEASE TR-FRET)", "settings": "Cot KinEASE TR-FRET, 400 μM ATP; read-out: IC50 HTRF", "experimental": "Example 61: High Throughput Cot Biochemical Assay\nIn this assay, Cot-catalyzes the phosphorylation of a XL665-labeled peptide substrate. Europium conjugated phospho-tyrosine specific antibody binds the resulting phosphorylated peptide. […] Purified recombinant human Cot catalytic domain (30-397 amino acids) was purchased from Cama Biosciences. […] The standard 5 μL reaction mixture contained 400 μM ATP, 1 μM STK3 peptide, 5 nM of Cot in reaction buffer (10 mM MOPS, pH 7.0, 0.02% NaN3, 0.5 mg/mL BSA, 10 mM MgOAc, 1 mM DTT, 0.025% NP-40, 1.5% glycerol) and 0.1% DMSO.", "units": {"IC50": "nM"}, "values": [{"smiles": "CC(C)(C)N1CCC(n2cc([C@@H](Nc3cc(Cl)c4ncc(C#N)c(Nc5ccc(F)c(Br)c5)c4c3)c3ccc(Cl)cc3)nn2)CC1", "note": "[Example 763, (S)-4-((3-bromo-4-fluorophenyl)amino)-6-(((1-(1-(tert-butyl)piperidin-4-yl)-1H-1,2,3-triazol-4-yl)(4-chlorophenyl)methyl)amino)-8-chloroquinoline-3-carbonitrile]", "IC50": 23}, {"smiles": "COc1cc2ncc(C#N)c(Nc3ccc(F)c(Cl)c3)c2cc1N[C@@H](c1ccc(Cl)cc1)c1cn(C2CCN(C(C)(C)C)CC2)nn1", "note": "[Example 769, (S)-6-(((1-(1-(tert-butyl)piperidin-4-yl)-1H-1,2,3-triazol-4-yl)(4-chlorophenyl)methyl)amino)-4-((3-chloro-4-fluorophenyl)amino)-7-methoxyquinoline-3-carbonitrile]", "IC50": "> 10000"}, {"smiles": "CC(C)(C)N1CCC(n2cc([C@@H](Nc3cc(Cl)c4ncc(C#N)c(Nc5ccc(C#N)c(Cl)c5)c4c3)c3ccc(Cl)cc3)nn2)CC1", "note": "[Example 770, (S)-6-(((1-(1-(tert-butyl)piperidin-4-yl)-1H-1,2,3-triazol-4-yl)(4-chlorophenyl)methyl)amino)-8-chloro-4-((3-chloro-4-cyanophenyl)amino)quinoline-3-carbonitrile]", "IC50": 60}, {"smiles": "CC(C)(C)N1CCC(n2cc([C@@H](Nc3cc(Cl)c4ncc(C#N)c(Nc5cncc(F)c5)c4c3)c3ccc(Cl)cc3)nn2)CC1", "note": "[Example 771, (S)-6-(((1-(1-(tert-butyl)piperidin-4-yl)-1H-1,2,3-triazol-4-yl)(4-chlorophenyl)methyl)amino)-8-chloro-4-((5-fluoropyridin-3-yl)amino)quinoline-3-carbonitrile]", "IC50": 93}, {"smiles": "CC(C)(C)N1CCC(n2cc([C@@H](Nc3cc(Cl)c4ncc(C#N)c(Nc5cccnc5)c4c3)c3ccc(Cl)cc3)nn2)CC1", "note": "[Example 772, (S)-6-(((1-(1-(tert-butyl)piperidin-4-yl)-1H-1,2,3-triazol-4-yl)(4-chlorophenyl)methyl)amino)-8-chloro-4-(pyridin-3-ylamino)quinoline-3-carbonitrile]", "IC50": 324}, {"smiles": "Cc1cc2ncc(C#N)c(Nc3ccc(F)c(Cl)c3)c2cc1NC(c1ccc(F)cc1)c1cn(C)nn1", "note": "(stereo not shown) [Example 773, 4-((3-chloro-4-fluorophenyl)amino)-6-(((4-fluorophenyl)(1-methyl-1H-1,2,3-triazol-4-yl)methyl)amino)-7-methylquinoline-3-carbonitrile]", "IC50": 1860}, {"smiles": "N#Cc1cnc2c(Cl)cc(N[C@@H](c3ccccc3)c3cn(C4CC5(CNC5)C4)nn3)cc2c1Nc1ccc(F)c(Cl)c1", "note": "[Example 775, (S)-6-(((1-(2-azaspiro[3.3]heptan-6-yl)-1H-1,2,3-triazol-4-yl)(phenyl)methyl)amino)-8-chloro-4-((3-chloro-4-fluorophenyl)amino)quinoline-3-carbonitrile]", "IC50": 5}, {"smiles": "N#Cc1cnc2c(Cl)cc(NC(c3ccc(F)cc3)c3nccs3)cc2c1Nc1ccc(F)c(Cl)c1", "note": "(stereo not shown) [Example 782, 8-chloro-4-((3-chloro-4-fluorophenyl)amino)-6-(((4-fluorophenyl)(thiazol-2-yl)methyl)amino)quinoline-3-carbonitrile]", "IC50": 444}, {"smiles": "N#Cc1cnc2c(Cl)cc(NC(c3ccc(F)cc3)c3ncco3)cc2c1Nc1ccc(F)c(Cl)c1", "note": "(stereo not shown) [Example 783, 8-chloro-4-((3-chloro-4-fluorophenyl)amino)-6-(((4-fluorophenyl)(oxazol-2-yl)methyl)amino)quinoline-3-carbonitrile]", "IC50": 291}, {"smiles": "CC(C)(C)N1CCC(n2cc([C@@H](Nc3cc(Cl)c4ncc(C#N)c(Nc5cccc(-n6nccn6)c5)c4c3)c3ccccc3)nn2)CC1", "note": "[Example 785, (S)-4-((3-(2H-1,2,3-triazol-2-yl)phenyl)amino)-6-(((1-(1-(tert-butyl)piperidin-4-yl)-1H-1,2,3-triazol-4-yl)(phenyl)methyl)amino)-8-chloroquinoline-3-carbonitrile]", "IC50": 782}, {"smiles": "CC1(C)C[C@H](n2cc([C@H](Nc3cc(Cl)c4ncc(C#N)c(Nc5ccc(F)c(Cl)c5)c4c3)c3ccccc3)nn2)CCN1", "note": "[Example 788, 8-chloro-4-((3-chloro-4-fluorophenyl)amino)-6-(((R)-(1-((R)-2,2-dimethylpiperidin-4-yl)-1H-1,2,3-triazol-4-yl)(phenyl)methyl)amino) quinoline-3-carbonitrile]", "IC50": 1010}, {"smiles": "CC1(C)C[C@H](n2cc([C@H](Nc3cc(Cl)c4ncc(C#N)c(Nc5ccc(F)c(Cl)c5)c4c3)c3ccccc3)nn2)CCN1", "note": "[Example 789, 8-chloro-4-((3-chloro-4-fluorophenyl)amino)-6-(((R)-(1-((R)-2,2-dimethylpiperidin-4-yl)-1H-1,2,3-triazol-4-yl)(phenyl)methyl)amino) quinoline-3-carbonitrile]", "IC50": 657}, {"smiles": "COc1cc2ncc(C#N)c(Nc3ccc(F)c(Cl)c3)c2cc1NC(c1ccc(F)cc1)c1cn(C)nn1", "note": "(stereo not shown) [Example 798, 4-((3-chloro-4-fluorophenyl)amino)-6-(((4-fluorophenyl)(1-methyl-1H-1,2,3-triazol-4-yl)methyl)amino)-7-methoxyquinoline-3-carbonitrile]", "IC50": 7920}, {"smiles": "N#Cc1cnc2ccc(NC(c3ccc(F)cc3)c3ccncn3)cc2c1Nc1ccc(F)c(Cl)c1", "note": "(stereo not shown) [Example 799, 4-((3-chloro-4-fluorophenyl)amino)-6-(((4-fluorophenyl)(pyrimidin-4-yl)methyl)amino)quinoline-3-carbonitrile]", "IC50": 1480}, {"smiles": "N#Cc1cnc2c(Cl)cc(NC(c3ccc(F)cc3)c3ncccn3)cc2c1Nc1ccc(F)c(Cl)c1", "note": "(stereo not shown) [Example 800, 8-chloro-4-((3-chloro-4-fluorophenyl)amino)-6-(((4-fluorophenyl)(pyrimidin-2-yl)methyl)amino)quinoline-3-carbonitrile]", "IC50": "> 10000"}, {"smiles": "N#Cc1cnc2c(Cl)cc(NC(c3ccc(F)cc3)c3cnccn3)cc2c1Nc1ccc(F)c(Cl)c1", "note": "(stereo not shown) [Example 801, 8-chloro-4-((3-chloro-4-fluorophenyl)amino)-6-(((4-fluorophenyl)(pyrazin-2-yl)methyl)amino)quinoline-3-carbonitrile]", "IC50": 1070}, {"smiles": "N#Cc1cnc2c(Cl)cc(NC(c3ccc(F)cc3)c3cocn3)cc2c1Nc1ccc(F)c(Cl)c1", "note": "(stereo not shown) [Example 807, 8-chloro-4-((3-chloro-4-fluorophenyl)amino)-6-(((4-fluorophenyl)(oxazol-4-yl)methyl)amino)quinoline-3-carbonitrile]", "IC50": 437}, {"smiles": "N#Cc1cnc2c(Cl)cc(N[C@@H](c3ccc(F)cc3)c3cn(C4COC4)nn3)cc2c1Nc1ccc(F)c(Cl)c1", "note": "[Example 810, (S)-8-chloro-4-((3-chloro-4-fluorophenyl)amino)-6-(((4-fluorophenyl)(1-(oxetan-3-yl)-1H-1,2,3-triazol-4-yl)methyl)amino)quinoline-3-carbonitrile]", "IC50": 12}, {"smiles": "CC(C)(C)n1cc([C@@H](Nc2cc(Cl)c3ncc(C#N)c(Nc4ccc(F)c(Cl)c4)c3c2)c2ccc(F)cc2)nn1", "note": "[Example 811, (S)-6-(((1-(tert-butyl)-1H-1,2,3-triazol-4-yl)(4-fluorophenyl)methyl)amino)-8-chloro-4-((3-chloro-4-fluorophenyl)amino)quinoline-3-carbonitrile]", "IC50": 34}, {"smiles": "CC(C)(CC(=O)O)n1cc([C@@H](Nc2cc(Cl)c3ncc(C#N)c(Nc4ccc(F)c(Cl)c4)c3c2)c2ccc(F)cc2)nn1", "note": "[Example 812, (S)-3-(4-(((8-chloro-4-((3-chloro-4-fluorophenyl)amino)-3-cyanoquinolin-6-yl)amino)(4-fluorophenyl)methyl)-1H-1,2,3-triazol-1-yl)-3-methylbutanoic acid]", "IC50": 794}, {"smiles": "N#Cc1cnc2c(Cl)cc(NC(c3ccc(F)cc3)c3cn(C[C@H]4CCCN4)nn3)cc2c1Nc1ccc(F)c(Cl)c1", "note": "(stereo partly drawn) [Example 817, 8-chloro-4-((3-chloro-4-fluorophenyl)amino)-6-(((4-fluorophenyl)(1-(((R)-pyrrolidin-2-yl)methyl)-1H-1,2,3-triazol-4-yl)methyl)amino)quinoline-3-carbonitrile]", "IC50": 7}, {"smiles": "CN(C)C(=O)N1CCC[C@@H]1Cn1cc(C(Nc2cc(Cl)c3ncc(C#N)c(Nc4ccc(F)c(Cl)c4)c3c2)c2ccc(F)cc2)nn1", "note": "(stereo partly drawn) [Example 818, (2R)-2-((4-(((8-chloro-4-((3-chloro-4-fluorophenyl)amino)-3-cyanoquinolin-6-yl)amino)(4-fluorophenyl)methyl)-1H-1,2,3-triazol-1-yl)methyl)-N,N-dimethylpyrrolidine-1-carboxamide]", "IC50": 447}, {"smiles": "CCN1CCC(n2cc([C@@H](Nc3cc(Cl)c4ncc(C#N)c(Nc5ccc(F)c(Cl)c5)c4c3)c3ccc4ccccc4c3)nn2)CC1", "note": "[Example 820, (S)-8-chloro-4-((3-chloro-4-fluorophenyl)amino)-6-(((1-(1-ethylpiperidin-4-yl)-1H-1,2,3-triazol-4-yl)(naphthalen-2-yl)methyl)amino)quinoline-3-carbonitrile]", "IC50": 23}, {"smiles": "N#Cc1cnc2c(Cl)cc(N[C@@H](c3ccc(F)cc3)c3cn(C4CCN(C5CC5)CC4)nn3)cc2c1Nc1ccc(F)c(Cl)c1", "note": "[Example 821, (S)-8-chloro-4-((3-chloro-4-fluorophenyl)amino)-6-(((1-(1-cyclopropylpiperidin-4-yl)-1H-1,2,3-triazol-4-yl)(4-fluorophenyl)methyl)amino) quinoline-3-carbonitrile]", "IC50": 21}, {"smiles": "N#Cc1cnc2c(Cl)cc(N[C@@H](c3ccc(F)cc3)c3cn(C4CCN(C5CC(F)(F)C5)CC4)nn3)cc2c1Nc1ccc(F)c(Cl)c1", "note": "[Example 822, (S)-8-chloro-4-((3-chloro-4-fluorophenyl)amino)-6-(((1-(1-(3,3-difluorocyclobutyl)piperidin-4-yl)-1H-1,2,3-triazol-4-yl)(4-fluorophenyl)methyl)amino) quinoline-3-carbonitrile]", "IC50": 90}]}]}
